Structures can show the parent of a compound that is named as a salt.
What was measured:
[1] = tested on: ALPK1-dependent NFκB reporter gene activation in HEK293 cells stably expressing an NF-kB reporter (G9 cells); assay: NFκB gene reporter alkaline phosphatase assay; type: cell-based; conditions: Homo sapiens, read-out: NFKB assay IC50
Description: NFκB Gene Reporter Alkaline Phosphatase Assay
An alkaline phosphatase reporter assay system was used to measure inhibition of ALPK1-dependent NFκB reporter gene activation. Briefly, HEK293 cells stably expressing an NF-kB reporter (referred to herein as “G9 cells”) were maintained in Dulbecco's Modified Eagle Medium (DMEM) supplemented with 10% fetal bovine serum (FBS, Hyclone™) containing antibiotics (pen/strep, G418) […]. For the assay, cells were seeded into 96-well plates at a density of 10,000 cells/well in Freestyle™ 293 Expression Medium (ThermoFisher) and allowed to attach overnight. […] NFkB gene activation was detected using the chromogenic substrate, para-nitrophenyl phosphate (pNPP) according to the manufacturer's protocols (pNPP Phosphatase Assay, Beyotime Biotechnology).

[2] = tested on: lupus nephritis in MRL/MpJ-Faslpr/J mice; assay: MRL/MpJ-Faslpr/J mouse lupus nephritis model; type: in vivo
Description: After 8 weeks of treatment, the animals were sacrificed, and their urine was collected for proteinuria assessment using Urine Protein Test Strips (FIG. 9). The right kidneys were harvested and stained by hematoxylin and eosin (H&E) for pathological evaluation (FIG. 10A-G).

[3] = tested on: UUO induced kidney fibrosis; conditions: rat UUO
Description: Briefly, we ligated the left ureter of rat and then start the daily oral treatment right after the surgery for 7 days, and then measure the kidney fibrosis by hydroxyproline content measurement and Sirus red staining. Because of the amount of renal inflammation, we used hydroxyproline (OH-P) content indexed to total protein for interpretation of UUO-induced fibrosis and compound efficacy (FIG. 3A) For completeness, we also analyzed the OH-P content indexed to tissue mass (FIG. 3B).

[4] = tested on: ALPK1-dependent gene expression in kidney; assay: Inhibition of ALPK1 in kidney: ALPK1 agonist-induced gene expression in rats; type: in vivo, Sprague-Dawley (SD) rats; conditions: SD rats, oral 2, 5, 10, 20 mpk 21 h before ip ALPK1 agonist, kidneys 3 h after agonist; relative to vehicle group
[5] = tested on: adenine diet induced rat CKD model
Description: We started compound dosing from day 14 after adenine diet inception for 6 weeks. During the study, we collected plasma and measure the Blood Urea Nitrogen (BUN) (FIG. 6A) and creatine (FIG. 6B) level weekly.

ALPK1 = ALPK1 (Homo sapiens (Human), UniProt Q96QP1); assay: ALPK1 in vitro kinase assay (HTRF of TIFA phosphorylation); type: biochemical; conditions: ALPK1 2 nM activated by ADP-Heptose, TIFA substrate
ALPK1, sequence (Q96QP1 whole entry): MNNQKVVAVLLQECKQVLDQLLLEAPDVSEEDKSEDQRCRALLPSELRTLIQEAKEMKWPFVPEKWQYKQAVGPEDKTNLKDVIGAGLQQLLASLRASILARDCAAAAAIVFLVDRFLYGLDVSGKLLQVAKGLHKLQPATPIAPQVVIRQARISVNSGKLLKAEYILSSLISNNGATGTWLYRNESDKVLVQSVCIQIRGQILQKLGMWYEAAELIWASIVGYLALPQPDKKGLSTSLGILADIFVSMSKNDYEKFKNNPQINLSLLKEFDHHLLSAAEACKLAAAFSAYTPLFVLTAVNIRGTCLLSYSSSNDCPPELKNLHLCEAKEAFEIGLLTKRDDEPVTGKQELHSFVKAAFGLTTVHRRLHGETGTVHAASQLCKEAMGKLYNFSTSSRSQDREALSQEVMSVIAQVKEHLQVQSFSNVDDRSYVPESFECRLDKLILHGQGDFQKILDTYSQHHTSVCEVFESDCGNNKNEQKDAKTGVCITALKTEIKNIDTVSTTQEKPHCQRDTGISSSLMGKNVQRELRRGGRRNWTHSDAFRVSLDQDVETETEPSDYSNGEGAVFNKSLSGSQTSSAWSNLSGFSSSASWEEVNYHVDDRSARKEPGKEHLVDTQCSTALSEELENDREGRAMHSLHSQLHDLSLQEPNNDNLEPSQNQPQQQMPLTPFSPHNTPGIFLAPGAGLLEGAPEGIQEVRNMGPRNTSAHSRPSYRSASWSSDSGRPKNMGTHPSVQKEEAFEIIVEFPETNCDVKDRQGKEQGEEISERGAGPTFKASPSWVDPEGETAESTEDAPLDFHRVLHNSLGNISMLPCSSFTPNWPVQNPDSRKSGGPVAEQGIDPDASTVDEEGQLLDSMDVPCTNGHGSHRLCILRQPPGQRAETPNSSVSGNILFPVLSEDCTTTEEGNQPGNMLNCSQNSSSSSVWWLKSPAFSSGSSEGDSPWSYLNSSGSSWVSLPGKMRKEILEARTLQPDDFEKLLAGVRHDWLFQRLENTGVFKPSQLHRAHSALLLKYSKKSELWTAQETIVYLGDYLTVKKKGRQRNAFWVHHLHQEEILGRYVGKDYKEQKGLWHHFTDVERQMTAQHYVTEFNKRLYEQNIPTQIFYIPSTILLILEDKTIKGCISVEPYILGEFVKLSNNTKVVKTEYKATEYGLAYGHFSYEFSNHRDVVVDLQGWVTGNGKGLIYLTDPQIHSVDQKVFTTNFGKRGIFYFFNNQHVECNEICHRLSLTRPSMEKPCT
Description: ALPK1 in vitro Kinase Assay
ALPK1 kinase activity was measured in an in vitro assay using ADP-Heptose as the ALPK1 ligand and activator of its kinase activity and TIFA protein as the ALPK1 phosphorylation substrate. Since phosphorylated TIFA proteins oligomerize, Homogeneous Time-Resolved Fluorescence (HTRF) was used to measure protein: protein interaction between HA-tagged TIFA proteins as an indicator of TIFA phosphorylation.
In brief, dose-response studies were performed in 384-well assay plates. Each well contained 0.1 mg TIFA, ALPK1 (2 nM final concentration in reaction mixture) and kinase buffer (100 mM of HEPES pH 7.4, 4 mM DTT, 40 mM MgCl2, 20 mM of β-Glycerol phosphate disodium salt, 0.4 mM of Na3VO4, 0.16 mg/mL). Titrations of the test compounds were prepared in dimethylsulphoxide (DMSO). The reaction was initiated by addition of ATP and ADP-Heptose.
For HTRF, samples were incubated with a Tb cryptate-labeled anti-HA antibody for capturing HA-tagged proteins according to the manufacturer's instructions (PerkinElmer™, CisBio™) and the fluorescence signal was quantified (Tecan Infinite F NANO+). HTRF signals were calculated as the HTRF ratio (ratio of fluorescence measured at 665 nm and 620 nm)×104 (thereby using the signal at 620 nm as an internal standard).
IC50 values were determined using 3- or 4-parameter logistic equation using GraphPad Prism version 6.00. The reference compound, A027, was used as a positive control for each plate.

[6] = 10 mg/kg oral daily, 8 weeks, kidney H&E
[7] = daily oral treatment for 7 days, C008 at 7 mpk & 20 mpk

COc1ccc(C(C)(C)c2csc(NC(=O)NCc3cc(F)c(C4CCNCC4)c(F)c3)n2)cc1 [Example A151, 1-(3,5-difluoro-4-(piperidin-4-yl)benzyl)-3-(4-(2-(4-methoxyphenyl)propan-2-yl)thiazol-2-yl)urea hydrochloride]
IC50 [1]: 0.95 µM

COc1ccc(C(C)(C)c2csc(NC(=O)NCc3cc(F)c(N4CCNCC4)cc3F)n2)cc1 [Example A231, 1-(2,5-difluoro-4-(piperazin-1-yl)benzyl)-3-(4-(2-(4-methoxyphenyl)propan-2-yl)thiazol-2-yl)urea hydrochloride]
IC50 [1]: 3.36 µM

C#C[C@@](C)(c1ccc(Cl)cc1)c1csc(NC(=O)c2c(F)cc(N3CCNCC3)cc2F)n1 [Example C008, (S)-N-(4-(2-(4-chlorophenyl)but-3-yn-2-yl)thiazol-2-yl)-2,6-difluoro-4-(piperazin-1-yl)benzamide]
proteinuria scores ([2]; 10 mg/kg oral daily, 8 weeks, compared to vehicle disease group): significant reduction
pathological score: crescent [2, 6]: significantly lower
pathological score: glomerulus diameter [2, 6]: significantly lower
pathological score: interstitial inflammation [2, 6]: significantly lower
pathological score: protein cast [2, 6]: significantly lower
mRNA expression of Ccl2, Ccl4, Ccl5, Ccr1 and IL-6 in kidney ([2]; left kidneys, qPCR, after 8 weeks, relative to vehicle group): significant decreases
UUO induced kidney fibrosis ([3]; C008 2, 7, 20 mg/kg): dose dependently suppress
UUO-induced increases in renal cortical CVF (Collagen Volume Fraction, Sirus Red) [3, 7]: attenuated
UUO-induced increases in renal cortical OH-P (hydroxyproline) [3, 7]: attenuated
kidney expression of genes involved in fibrosis and inflammation ([3]; separate study, C008 5, 10, 20 mg/kg): inhibited
mRNA expression for CCL-2, CCL-7, CXCL-1, CXCL-10, IL-1β and IL-6 in kidney [4]: significant decreases
adenine-induced increases in renal cortical CVF ([5]; rat adenine diet, end of study, C008 at 7 and 20 mpk): attenuated
adenine-induced increases in plasma creatinine ([5]; rat adenine diet, ALK5i: days 35-56, C008: days 35 (20 mpk), 49 & 56 (7&20 mpk)): attenuated
adenine-induced increases in plasma BUN ([5]; rat adenine diet, ALK5i: days 35-56, C008: days 42 (20 mpk), 49 (7&20 mpk), 56 (20 mpk)): attenuated
adenine diet induced kidney dysfunction and kidney fibrosis ([5]; rat, C008 7, 20 mg/kg, dosing from day 14 for 6 weeks): significantly inhibit

C#C[C@](C)(c1ccc(Cl)cc1)c1nc(NC(=O)c2c(F)cc(N3CCNCC3)cc2F)sc1Cl (stereo in doubt) [Example C050, N-(5-chloro-4-(2-(4-chlorophenyl)but-3-yn-2-yl)thiazol-2-yl)-2,6-difluoro-4-(piperazin-1-yl)benzamide]
IC50 (ALPK1): 0.923 µM

COc1ccc(C(C)(C)c2csc(NC(=O)c3ccc(N4CCNCC4C)cc3)n2)cc1 (centres unmarked) [Example B014]
IC50 (ALPK1): 0.3 µM

COc1ccc(C(C)(C)c2csc(NC(=O)N3CC(c4ccc(N5CCNCC5)cc4)C3)n2)cc1 [Example A233, N-(4-(2-(4-methoxyphenyl)propan-2-yl)thiazol-2-yl)-3-(4-(piperazin-1-yl)phenyl)azetidine-1-carboxamide]
IC50 [1]: 0.33 µM

COc1ccc(C(C)(C)c2csc(NC(=O)c3ccc(N4CCC(O)C4)cc3)n2)cc1 (centres unmarked) [Example B009, 4-(3-hydroxypyrrolidin-1-yl)-N-(4-(2-(4-methoxyphenyl)propan-2-yl)thiazol-2-yl)benzamide]
IC50 (ALPK1): 0.095 µM

C#C[C@@](C)(c1ccc(F)cc1)c1csc(NC(=O)c2ccc(N3CCNCC3CO)cc2)n1 (stereo in doubt) [Example B070, N-[4-[1-(4-fluorophenyl)-1-methyl-prop-2-ynyl]thiazol-2-yl]-4-[2-(hydroxymethyl)piperazin-1-yl]benzamide]
IC50 (ALPK1): 0.169 µM

C#C[C@](C)(c1ccc(Cl)cc1)c1csc(NC(=O)c2c(F)cc(N3CCN(C)CC3)cc2F)n1 (stereo in doubt) [Example C009, N-(4-(2-(4-chlorophenyl)but-3-yn-2-yl)thiazol-2-yl)-2,6-difluoro-4-(4-methylpiperazin-1-yl)benzamide]
IC50 (ALPK1): 0.007 µM

From patent US20250381196A1 (SHANGHAI YAO YUAN BIOTECHNOLOGY CO., LTD., priority 2022, published 2025)
